{
  "source": "patent US9884832B2",
  "about": "(priority 2011, dated 2018)",
  "data": [
    {"biological_target": "AM2 S31 (wild-type serine at position 31 in the M2 protein), influenza virus A/Udorn/72 (Influenza A virus, UniProt P0DOF5)", "sequence (P0DOF5 whole entry, looked up)": "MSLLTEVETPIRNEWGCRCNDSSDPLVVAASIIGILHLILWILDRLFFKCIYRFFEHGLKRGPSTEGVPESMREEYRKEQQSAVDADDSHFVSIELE", "assay": "cell-based", "details": "100 uM; Xenopus oocytes; activity range class; read-out: S31 OOcyte Inhibition at 100 uM (%)", "units": {"inhibition at 100 µM": "%"}, "values": [
      {"compound": "Cc1ccc(-c2ccc(CNC34CC5CC(CC(C5)C3)C4)cc2)o1.Cl", "note": "[Example 32a, N-(4-(5-Methylfuran-2-yl)benzyl)adamantan-1-amine hydrochloride]", "inhibition at 100 µM": "0 to 30"},
      {"compound": "c1csc(-c2nnc(CNC34CC5CC(CC(C5)C3)C4)s2)c1", "note": "[Example 151a, N-((5-(thiophen-2-yl)-1,3,4-thiadiazol-2-yl)methyl)adamantan-1-amine]", "inhibition at 100 µM": "0 to 30"},
      {"compound": "c1ccc(-c2nc(CNC34CC5CC(CC(C5)C3)C4)cs2)cc1", "note": "[Example 132a, N-((2-phenylthiazol-4-yl)methyl)adamantan-1-amine]", "inhibition at 100 µM": "0 to 30"},
      {"compound": "c1csc(-c2csc(CNC34CC5CC(CC(C5)C3)C4)c2)c1", "note": "[Example 140a, Adamantan-1-yl-[2,3′]bithiophenyl-5′-ylmethyl-amine]", "inhibition at 100 µM": "0 to 30"},
      {"compound": "COc1ccc2cc(CNC34CC5CC(CC(C5)C3)C4)sc2c1", "note": "[Example 185a, N-((6-methoxybenzo[b]thiophen-2-yl)methyl)adamantan-1-amine]", "inhibition at 100 µM": "0 to 30"},
      {"compound": "c1ccc(-c2ncc(CNC34CC5CC(CC(C5)C3)C4)cn2)cc1", "note": "[Example 63a, N-((2-phenylpyrimidin-5-yl)methyl)adamantan-1-amine]", "inhibition at 100 µM": "0 to 30"},
      {"compound": "Cc1cccc2nc(CNC34CC5CC(CC(C5)C3)C4)[nH]c12", "note": "[Example 184a, Adamantan-1-yl-(7-methyl-1H-benzoimidazol-2-ylmethyl)-amine]", "inhibition at 100 µM": "0 to 30"},
      {"compound": "Cc1c(CNC23CC4CC(CC(C4)C2)C3)sc2ccccc12", "note": "[Example 177a, Adamantan-1-yl-(3-methyl-benzo[b]thiophen-2-ylmethyl)-amine]", "inhibition at 100 µM": "31 to 95"},
      {"compound": "Brc1ccc(CNC23CC4CC(CC(C4)C2)C3)s1", "note": "[Example 81a, N-((5-Bromothiophen-2-yl)methyl)adamantan-1-amine]", "inhibition at 100 µM": "31 to 95"},
      {"compound": "Brc1ccc(-c2cc(CNC34CC5CC(CC(C5)C3)C4)on2)cc1", "note": "[Example 117a, N-((3-(4-bromophenyl)isoxazol-5-yl)methyl)adamantan-1-amine]", "inhibition at 100 µM": "0 to 30"},
      {"compound": "C(=C\\c1ccccc1)/CNC12CC3CC(CC(C3)C1)C2", "note": "[Example 199a, N-cinnamyladamantan-1-amine]", "inhibition at 100 µM": "0 to 30"}
    ]},
    {"biological_target": "AM2 S31 (wild-type serine at position 31 in the M2 protein), influenza virus A/Udorn/72 (Influenza A virus, UniProt P0DOF5)", "assay": "cell-based", "details": "Table 1; 100 uM; Xenopus oocytes, pH 5.5, -20 mV; read-out: S31 OOcyte Inhibition at 100 uM (%)", "units": {"inhibition at 100 µM": "%"}, "values": [
      {"compound": "O=[N+]([O-])c1cc(CNC23CC4CC(CC(C4)C2)C3)ccc1O", "note": "[Example 52, 4-(Adamantan-1-ylaminomethyl)-2-nitro-phenol]", "inhibition at 100 µM": "31 to 95"},
      {"compound": "COc1ccc(CNC23CC4CC(CC(C4)C2)C3)cc1O", "note": "[Example 61, 5-(Adamantan-1-ylaminomethyl)-2-methoxy-phenol]", "inhibition at 100 µM": "31 to 95"},
      {"compound": "c1ccc2[nH]c(CNC34CC5CC(CC(C5)C3)C4)nc2c1", "note": "[Example 92, Adamantan-1-yl-(1H-benzoimidazol-2-ylmethyl)-amine]", "inhibition at 100 µM": "0 to 30"},
      {"compound": "c1cc2cc(CNC34CC5CC(CC(C5)C3)C4)[nH]c2s1", "note": "[Example 82, Adamantan-1-yl-(6H-thieno[2,3-b]pyrrol-5-ylmethyl)-amine]", "inhibition at 100 µM": "31 to 95"},
      {"compound": "CC(=O)c1sccc1-c1ccc(CNC23CC4CC(CC(C4)C2)C3)cc1", "note": "[Example 43, 1-(3-(4-((Adamantan-1-ylamino)methyl)phenyl)thiophen-2-yl)ethanone]", "inhibition at 100 µM": "0 to 30"}
    ]},
    {"biological_target": "AM2 S31 (wild-type serine at position 31 in the M2 protein), influenza virus A/Udorn/72 (Influenza A virus, UniProt P0DOF5)", "assay": "cell-based", "details": "Table 3; 100 uM; Xenopus oocytes, pH 5.5, -20 mV; read-out: S31 OOcyte Inhibition at 100 uM (%)", "units": {"inhibition at 100 µM": "%"}, "values": [
      {"compound": "c1csc(-c2nc(CNC34CC5CC(CC(C5)C3)C4)cs2)c1", "note": "[Example 11b, N-((2-(thiophen-2-yl)thiazol-4-yl)methyl)adamantan-1-amine]", "inhibition at 100 µM": "0 to 30"},
      {"compound": "Oc1cc(-c2ccco2)ccc1CNC12CC3CC(CC(C3)C1)C2", "note": "[Example 7b, 2-((-Adamantan-1-ylamino)methyl)-5-(furan-2-yl)phenol]", "inhibition at 100 µM": "0 to 30"},
      {"compound": "CCOC(=O)CN(C)c1ncc(CNC23CC4CC(CC(C4)C2)C3)cn1", "note": "[Example 60b, N-((2-methyl(ethylcarboxymethyl)aminopyrimidin-5-yl)methyl)adamantan-1-amine]", "inhibition at 100 µM": "0 to 30"},
      {"compound": "Brc1ccsc1CNC12CC3CC(CC(C3)C1)C2", "note": "[Example 47b, N-((3-Bromothiophen-2-yl)methyl)adamantan-1-amine]", "inhibition at 100 µM": "31 to 95"}
    ]}
  ]
}
